According to US20160312292A1, “METHODS FOR TREATING HEMATOLOGICAL CANCERS AND THE USE OF BIOMARKERS AS A PREDICTOR OF CLINICAL SENSITIVITY TO IMMUNODULATORY THERAPIES” (CELGENE CORPORATION, priority 2013, published 2016):
“And” between values parts separate entries of the source, which are not always exact repeats. Identical values can stand only once.

System: refractory or relapsed diffuse large B-Cell lymphoma (DLBCL) patients
Experiment: Clinical trial of lenalidomide in refractory or relapsed DLBCL patients: best response, PFS, OS
Type: in vivo, human
Source text: A clinical trial was formed with four arms, each arm containing 25 patients. One arm contained patients classified as presenting germinal center B-cell-like DLBCL subtypes receiving lenalidomide, a second arm contained patients classified as presenting germinal center B-cell-like DLBCL subtypes receiving another therapy selected by the investigator, a third arm contained patients classified as presenting activated B-cell-like DLBCL subtypes receiving lenalidomide, and a fourth arm contained patients classified as presenting activated B-cell-like DLBCL subtypes receiving another therapy selected by the investigator. The patients in the four arms of the clinical trial received treatment until disease progression.
For purposes of this exploratory analysis, a subset of the clinical data associated to each patient comprised the therapy arm, Revlimid (REV) or control drug (CON), and their corresponding response to the drug in both categorical variable {complete response (CR), partial response (PR), establish disease (SD), progression disease (PD) and Death} and continuous variables as progression free survival (PFS) and overall (OS), unit weeks. It also includes the predicted DLBCL sub-type (ABC/GCB) and other demographic data. […]

SMILES: Nc1cccc2c1CN(C1CCC(=O)NC1=O)C2=O (centres unmarked) [lenalidomide, 3-(4-amino-1-oxo-1,3-dihydro-isoindol-2-yl)-piperidine-2,6-dione]
- progression free survival (PFS) (individual Revlimid-arm DLBCL patients whose baseline FF profile had a non-zero estimated proportion of NK-cells): 27 weeks and 31.9 weeks and 32.4 weeks and 85.3 weeks
- progression free survival (PFS) (one lenalidomide-treated DLBCL patient with low B aIgM proportion who died shortly after starting treatment): < 3 weeks
